We go through one compound from publication PMC6704710, “Preclinical evaluation of 3D185, a novel potent inhibitor of FGFR1/2/3 and CSF-1R, in FGFR-dependent and macrophage-dominant cancer models” (Journal of Experimental & Clinical Cancer Research : CR, 2019).

Experiment in all cases: Eurofins kinase panel
Type in all cases: biochemical

The target of one experiment is T1, ATM(h) (Homo sapiens, UniProt Q13315).
T1 construct: purchased Eurofins (KinaseProfiler)
Particulars: read-out: Inhibition rate (%).

Another experiment addresses T2, IKKα(h) (Homo sapiens, UniProt O15111).
T2 construct: purchased Eurofins (KinaseProfiler)
T2 sequence (O15111 1-745): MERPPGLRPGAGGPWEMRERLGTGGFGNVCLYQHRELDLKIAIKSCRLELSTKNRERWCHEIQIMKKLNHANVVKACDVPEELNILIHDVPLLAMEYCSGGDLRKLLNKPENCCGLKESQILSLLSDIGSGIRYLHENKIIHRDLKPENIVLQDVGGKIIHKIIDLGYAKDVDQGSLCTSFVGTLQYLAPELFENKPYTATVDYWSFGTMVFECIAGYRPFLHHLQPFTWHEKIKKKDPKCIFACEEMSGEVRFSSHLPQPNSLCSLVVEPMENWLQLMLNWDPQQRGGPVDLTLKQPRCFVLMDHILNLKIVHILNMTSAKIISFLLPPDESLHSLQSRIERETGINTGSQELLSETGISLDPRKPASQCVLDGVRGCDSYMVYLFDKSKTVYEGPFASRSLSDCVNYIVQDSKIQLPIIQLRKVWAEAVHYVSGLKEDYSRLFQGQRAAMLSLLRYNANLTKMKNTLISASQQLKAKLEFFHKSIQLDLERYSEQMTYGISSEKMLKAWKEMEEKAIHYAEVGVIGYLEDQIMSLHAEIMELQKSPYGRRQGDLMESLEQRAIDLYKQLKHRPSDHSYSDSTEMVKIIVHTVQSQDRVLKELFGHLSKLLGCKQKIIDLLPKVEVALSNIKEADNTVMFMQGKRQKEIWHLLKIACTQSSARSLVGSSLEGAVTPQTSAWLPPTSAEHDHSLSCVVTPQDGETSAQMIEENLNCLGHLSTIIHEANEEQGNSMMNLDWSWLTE
Particulars: read-out: Inhibition rate (%).

The next experiment deals with T3, CK1γ1(h) (Homo sapiens, UniProt Q9HCP0).
T3 construct: purchased Eurofins (KinaseProfiler)
Particulars: read-out: Inhibition rate (%).

A further experiment concerns the target T4, TTBK1(h) (Homo sapiens, UniProt Q5TCY1).
T4 construct: purchased Eurofins (KinaseProfiler)
Particulars: read-out: Inhibition rate (%).

The target of a further experiment is T5, PAK6(h) (Homo sapiens, UniProt Q9NQU5).
T5 construct: purchased Eurofins (KinaseProfiler)
Particulars: read-out: Inhibition rate (%).

The target in a further experiment is FGFR2(h) (Homo sapiens, UniProt P21802).
A further experiment addresses T6, JAK3(h) (Homo sapiens, UniProt P52333).
T6 construct: purchased Eurofins (KinaseProfiler)
T6 sequence (P52333 1-1124): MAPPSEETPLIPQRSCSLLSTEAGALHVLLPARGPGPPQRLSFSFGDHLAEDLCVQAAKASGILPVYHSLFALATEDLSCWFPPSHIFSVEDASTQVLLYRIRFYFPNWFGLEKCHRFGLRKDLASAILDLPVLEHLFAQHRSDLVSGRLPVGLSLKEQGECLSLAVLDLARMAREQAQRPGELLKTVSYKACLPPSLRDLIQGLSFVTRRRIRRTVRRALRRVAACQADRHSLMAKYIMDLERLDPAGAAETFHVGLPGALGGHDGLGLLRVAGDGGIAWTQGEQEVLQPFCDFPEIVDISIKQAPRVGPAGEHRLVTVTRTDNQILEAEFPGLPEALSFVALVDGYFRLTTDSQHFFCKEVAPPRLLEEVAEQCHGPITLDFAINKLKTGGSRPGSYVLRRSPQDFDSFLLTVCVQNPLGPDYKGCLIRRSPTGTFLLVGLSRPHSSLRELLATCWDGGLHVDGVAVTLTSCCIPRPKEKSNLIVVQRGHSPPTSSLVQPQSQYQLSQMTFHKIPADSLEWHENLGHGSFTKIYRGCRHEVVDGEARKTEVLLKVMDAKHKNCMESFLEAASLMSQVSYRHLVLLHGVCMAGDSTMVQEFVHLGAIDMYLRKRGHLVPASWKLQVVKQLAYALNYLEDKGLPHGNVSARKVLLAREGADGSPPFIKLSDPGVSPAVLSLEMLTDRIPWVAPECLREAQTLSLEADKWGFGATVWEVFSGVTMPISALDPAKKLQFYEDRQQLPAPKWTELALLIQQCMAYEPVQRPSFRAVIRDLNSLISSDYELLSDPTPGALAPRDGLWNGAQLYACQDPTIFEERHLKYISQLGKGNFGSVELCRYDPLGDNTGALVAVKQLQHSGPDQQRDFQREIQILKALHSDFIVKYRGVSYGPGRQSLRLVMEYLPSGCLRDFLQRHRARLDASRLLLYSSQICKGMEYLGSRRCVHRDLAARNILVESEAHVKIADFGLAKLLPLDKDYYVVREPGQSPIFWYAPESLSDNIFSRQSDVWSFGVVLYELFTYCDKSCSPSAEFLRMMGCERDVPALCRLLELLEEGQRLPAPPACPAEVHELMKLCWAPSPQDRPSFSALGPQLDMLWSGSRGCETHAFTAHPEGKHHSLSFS
Particulars: read-out: Inhibition rate (%).

SMILES strings stand for the structures.

T5 sequence (Q9NQU5 whole entry): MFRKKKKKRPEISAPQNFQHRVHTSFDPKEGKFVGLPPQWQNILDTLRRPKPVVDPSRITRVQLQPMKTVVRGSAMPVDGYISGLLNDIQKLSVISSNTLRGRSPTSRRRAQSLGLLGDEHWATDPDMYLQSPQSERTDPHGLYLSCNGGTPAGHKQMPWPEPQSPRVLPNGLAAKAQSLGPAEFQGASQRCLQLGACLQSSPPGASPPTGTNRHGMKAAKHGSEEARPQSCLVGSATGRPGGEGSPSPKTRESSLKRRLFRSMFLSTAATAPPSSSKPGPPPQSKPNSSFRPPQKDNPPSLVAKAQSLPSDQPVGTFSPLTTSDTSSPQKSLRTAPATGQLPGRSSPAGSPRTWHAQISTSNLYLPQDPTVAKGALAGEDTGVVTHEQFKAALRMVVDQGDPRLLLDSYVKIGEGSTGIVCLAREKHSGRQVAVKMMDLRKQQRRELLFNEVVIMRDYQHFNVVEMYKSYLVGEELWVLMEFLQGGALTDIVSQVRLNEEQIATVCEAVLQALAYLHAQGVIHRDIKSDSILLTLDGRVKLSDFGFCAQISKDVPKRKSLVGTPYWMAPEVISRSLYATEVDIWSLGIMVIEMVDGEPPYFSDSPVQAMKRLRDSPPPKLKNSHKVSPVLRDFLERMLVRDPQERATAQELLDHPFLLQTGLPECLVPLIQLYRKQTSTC
T4 sequence (Q5TCY1 whole entry): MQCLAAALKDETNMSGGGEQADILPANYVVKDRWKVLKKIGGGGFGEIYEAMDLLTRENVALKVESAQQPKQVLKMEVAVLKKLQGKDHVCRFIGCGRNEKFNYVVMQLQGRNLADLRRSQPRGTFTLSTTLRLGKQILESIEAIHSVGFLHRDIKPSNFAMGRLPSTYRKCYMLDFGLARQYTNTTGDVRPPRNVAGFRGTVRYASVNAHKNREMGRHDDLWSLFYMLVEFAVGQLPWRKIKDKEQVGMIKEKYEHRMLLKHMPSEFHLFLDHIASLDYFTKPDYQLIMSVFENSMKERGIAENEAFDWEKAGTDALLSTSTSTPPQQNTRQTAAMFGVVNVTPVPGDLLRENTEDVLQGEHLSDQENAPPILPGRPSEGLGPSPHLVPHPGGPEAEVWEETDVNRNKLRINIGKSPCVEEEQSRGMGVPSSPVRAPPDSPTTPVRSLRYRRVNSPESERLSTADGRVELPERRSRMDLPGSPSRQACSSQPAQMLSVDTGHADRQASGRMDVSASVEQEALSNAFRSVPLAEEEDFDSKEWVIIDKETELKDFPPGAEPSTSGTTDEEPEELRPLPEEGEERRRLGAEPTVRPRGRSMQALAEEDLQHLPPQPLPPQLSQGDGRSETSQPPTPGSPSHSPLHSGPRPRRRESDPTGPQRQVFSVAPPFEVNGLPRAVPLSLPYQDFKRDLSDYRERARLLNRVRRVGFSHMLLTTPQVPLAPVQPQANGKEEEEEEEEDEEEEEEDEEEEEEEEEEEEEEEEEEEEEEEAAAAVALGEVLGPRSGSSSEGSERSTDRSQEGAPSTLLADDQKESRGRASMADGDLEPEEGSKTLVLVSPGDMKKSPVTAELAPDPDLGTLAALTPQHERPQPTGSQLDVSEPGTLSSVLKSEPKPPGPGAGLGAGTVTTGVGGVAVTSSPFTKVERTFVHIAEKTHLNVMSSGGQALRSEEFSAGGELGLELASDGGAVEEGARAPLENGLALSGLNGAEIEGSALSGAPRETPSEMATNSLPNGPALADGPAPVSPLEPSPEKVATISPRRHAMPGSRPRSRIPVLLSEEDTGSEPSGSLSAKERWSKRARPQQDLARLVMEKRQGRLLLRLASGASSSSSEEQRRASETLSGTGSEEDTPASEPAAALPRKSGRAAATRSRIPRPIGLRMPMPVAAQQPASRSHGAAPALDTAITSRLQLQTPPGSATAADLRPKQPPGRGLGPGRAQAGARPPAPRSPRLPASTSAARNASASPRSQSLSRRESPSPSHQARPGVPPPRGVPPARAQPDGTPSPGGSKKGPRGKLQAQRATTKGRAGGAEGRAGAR
T3 sequence (Q9HCP0 whole entry): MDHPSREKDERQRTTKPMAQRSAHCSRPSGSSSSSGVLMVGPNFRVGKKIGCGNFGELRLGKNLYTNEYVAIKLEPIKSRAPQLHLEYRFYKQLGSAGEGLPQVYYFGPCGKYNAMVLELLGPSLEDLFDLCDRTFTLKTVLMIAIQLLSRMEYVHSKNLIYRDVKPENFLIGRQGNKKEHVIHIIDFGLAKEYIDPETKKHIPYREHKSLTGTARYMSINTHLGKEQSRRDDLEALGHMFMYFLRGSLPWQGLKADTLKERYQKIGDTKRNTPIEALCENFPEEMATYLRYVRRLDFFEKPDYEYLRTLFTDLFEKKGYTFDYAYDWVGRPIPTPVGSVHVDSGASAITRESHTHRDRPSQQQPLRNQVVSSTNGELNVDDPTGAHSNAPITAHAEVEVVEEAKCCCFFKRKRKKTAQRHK
FGFR2(h), sequence (P21802 22-821): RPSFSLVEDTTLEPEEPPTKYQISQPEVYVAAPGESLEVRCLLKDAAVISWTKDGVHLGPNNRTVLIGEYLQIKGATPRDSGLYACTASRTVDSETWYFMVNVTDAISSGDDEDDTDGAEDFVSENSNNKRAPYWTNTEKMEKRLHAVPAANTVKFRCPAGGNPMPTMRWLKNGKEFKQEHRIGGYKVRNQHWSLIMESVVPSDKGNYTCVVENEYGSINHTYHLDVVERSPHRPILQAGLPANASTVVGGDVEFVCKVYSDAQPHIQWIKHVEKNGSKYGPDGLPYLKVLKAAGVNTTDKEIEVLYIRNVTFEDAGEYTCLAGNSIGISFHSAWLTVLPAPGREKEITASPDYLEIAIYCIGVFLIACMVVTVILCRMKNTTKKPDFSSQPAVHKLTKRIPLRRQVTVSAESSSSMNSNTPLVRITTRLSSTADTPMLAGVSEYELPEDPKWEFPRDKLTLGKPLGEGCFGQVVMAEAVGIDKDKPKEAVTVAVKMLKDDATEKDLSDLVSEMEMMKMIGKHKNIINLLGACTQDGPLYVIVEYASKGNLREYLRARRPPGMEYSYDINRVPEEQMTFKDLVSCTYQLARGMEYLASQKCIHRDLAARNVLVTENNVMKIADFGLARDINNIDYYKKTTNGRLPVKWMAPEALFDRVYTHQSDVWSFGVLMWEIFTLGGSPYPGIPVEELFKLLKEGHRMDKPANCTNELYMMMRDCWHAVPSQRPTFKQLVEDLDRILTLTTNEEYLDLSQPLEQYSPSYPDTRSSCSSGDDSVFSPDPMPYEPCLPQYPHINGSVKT

For `COc1cc(OC)c(Cl)c(-c2ccc3c(NC(=O)c4ccc(N5CCNC(C)(C)C5)cc4)n[nH]c3n2)c1Cl` [3D185], the inhibition (in general, the drop in the measured response relative to a control, in per cent) at 0.01 µM was -3% on ATM(h) (10 nM); -3% at IKKα(h) (10 nM); 9% at CK1γ1(h) (10 nM); 2% at TTBK1(h) (10 nM); -3% on PAK6(h) (10 nM); 93% at FGFR2(h) (read-out: Inhibition rate (%)). Besides, the inhibition at 0.01 µM at JAK3(h) (10 nM) is -11%. Further, the inhibition at 0.1 µM is -5% at ATM(h) (100 nM); -3% at IKKα(h) (100 nM); -4% at CK1γ1(h) (100 nM); -7% on TTBK1(h) (100 nM); 12% on PAK6(h) (100 nM); 98% at FGFR2(h) (read-out: Inhibition rate (%)). Also, the inhibition at 0.1 µM at JAK3(h) (100 nM) amounted to 0%. The inhibition at 1 µM on ATM(h) (1000 nM) was -5%; on IKKα(h) (1000 nM), -7%; on CK1γ1(h) (1000 nM), 2%; at TTBK1(h) (1000 nM) it was -6%; at PAK6(h) (1000 nM), -4%; on FGFR2(h) (read-out: Inhibition rate (%)), 100%. Also, the inhibition at 1 µM on JAK3(h) (1000 nM) is 10%. Further, at FGFR2(h) (estimated from 372-kinase panel), the IC50 (usually the concentration at which inhibition is half-maximal) was less than 10 nM.
